Laboratory results: article PMC12423301, “Astrocytic monoamine oxidase B (MAOB)–gamma-aminobutyric acid (GABA) axis as a molecular brake on repair following spinal cord injury” (Signal Transduction and Targeted Therapy, 2025)
Read-outs that look alike come from different tables or passages of the source.

Tests used:
[1] = Preclinical pharmacokinetics in mice; assay type: in vivo, mouse
[2] = system: GABAA receptor-mediated currents from lamina II dorsal horn neurons; experiment: Tonic GABA current recording; assay type: in vivo, rat; conditions: SCI + KDS 2w, PI 10w
APP/PS1 transgenic mice = experiment: Cognitive tests in APP/PS1 transgenic mice; assay type: in vivo, mouse
[3] = Genetic toxicology (reverse mutation, chromosomal aberration, micronucleus)
Description: Protocol No. NB_KDS_ADP1_21 Confidential administration of the test substance to rats at a dose of 50-200 mg/kg daily for 2 weeks, there were no deaths.
As a result of oral administration to rats at doses of 30, 50, 75 and 100 mg/kg once daily for 4 weeks, […]
testis, epididymis and lungs. Renal epithelial hyperplasia and inflammatory cells infiltration in the renal pelvis observed in the male and female dose groups of 75 mg/kg or more, germ cell degeneration/loss and seminiferous tubules atrophy observed in the male dose groups of 75 mg/kg or more, and vacuole/degeneration of outer medullary tubules and basophilic tubules observed in the female dose groups were judged to be adverse effects due to administration of the test substance. Proximal tubular hyaline granules in the kidney, basophilic tubules, testicular germ cell degeneration/loss, and alveolar macrophage aggregation in the lungs(females) were observed even after a 2-week recovery period. Accordingly, in repeated administrations of rats for 4 weeks, the NOAEL(No Observed Adverse Effect Level) was determined to be 50 mg/kg/day for males and 30 mg/kg for females. As a result of repeated oral administrations of 0, 25, 50 or 100 mg/kg/day for 2 weeks to Cynomolgus […]
male dose group of 50 mg/kg/day, and a distal tubule/collecting duct dilatation and papillary duct epithelial cell […]
the NOAEL was judged as 40 mg/kg for both males and females. As a result of the safety pharmacology test, […]
the genetic toxicology, the reverse mutation test, the chromosomal aberration assay, and the micronucleus assay […]
In a pharmacokinetic study, plasma PK parameters were measured after a single oral administration of […]
a result of measuring excretion into urine, feces, expiration, and bile, 6.9% was excreted in urine and 48.5% in feces, respectively, up to 168 hours after administration. Excretion to air through respiration was about 0.0% until 48 hours after administration, and 44.1% of the administered radioactivity concentration was present in the body (carcass). […]

[4] = 14C radiolabeled KDS2010 disposition and excretion in rats; assay type: in vivo, SD rats
Description: (§1) Protocol No. NB_KDS_ADP1_21 Confidential
In a pharmacokinetic study, plasma PK parameters were measured after a single oral administration of
5.2. Rationale for Selection of Dose and Duration of Dosing
According to the FDA guideline (Estimating the Maximum Safe Starting Dose in Initial Clinical Trials for […]

[5] = human
Description: as §1
Therapeutics in Adult Healthy Volunteers), with considering the safety factor and the result of the rat that […]
from the NOAEL calculated in the 4-week repeated toxicity test for rats and cynomolgus monkeys, the maximum recommended starting dose (MRSD) was calculated. As a result of converting 0.484 mg/kg, a value obtained by dividing this by the safety factor of 10, into a dose for a healthy adult weighing 60 kg, the MRSD was calculated to be 29.04 mg, and the initial administration dose was set to 30 mg. As a result of a single oral dose toxicity test in rats, 700 mg/kg was reported as a maximum tolerated dose (MTD), and it was calculated as 6774.2 mg/60kg when converted to a human equivalent dose (HED). Therefore, the set maximum dose is expected to be suitable in terms of safety.
Species NOAEL HED factor (Safety factor factor (Safety factor 1/30) […]
5.2.2. Duration of Dosing and Timepoints of Blood samplings/Urine collections
6 hours. In addition, considering that the Tmax of selegiline (ZELAPAR®) and safinamide (XADAGO®), which are similar drugs, are 0.75 hours and 1.83 to 2.83 hours, respectively, pharmacokinetic blood samplings before the estimated Tmax (about 2 hours) were included at 3 or more time points, and the pharmacokinetic blood […]

[6] = ICR mouse, 5 mg/kg single intravenous administration
[7] = in vivo, APP/PS1 mouse, 1 mg/kg single oral administration
[8] = in vivo, APP/PS1 mouse, 10 mg/kg single oral administration
[9] = in vivo, ICR mouse, 5 mg/kg single intravenous administration
[10] = in vivo, ICR mouse, 5 mg/kg single oral administration
[11] = in vivo, ICR mouse, 10 mg/kg single oral administration
[12] = in vivo, ICR mouse, 30 mg/kg single oral administration
[13] = BDC rats, until 48 hours after oral administration
[14] = up to 168 hours after administration

CS(=O)(=O)O.C[C@H](NCc1ccc(-c2ccc(C(F)(F)F)cc2)cc1)C(N)=O [KDS2010, (S)-2-(((4’-Trifluoromethylbiphenyl-4-yl)methyl)amino)propanamide methane-sulfonate]
CL/F [1, 6]: 28.47 ± 1.37 mL/min/kg
Vd/F [1, 6]: 10.439 ± 0.682 L/kg
AUC(0-inf) [1, 7]: 1130 ± 173 ng·h/mL
half-life [1, 7]: 4.76 ± 0.43 h
CL/F ([1]; in vivo, APP/PS1 mouse, 1 mg/kg single oral administration, read-out: CL/F (converted)): 15 mL/min/kg
Vd/F ([1]; in vivo, APP/PS1 mouse, 1 mg/kg single oral administration, read-out: Vd/F): 6.13 ± 0.767 L/kg
AUC(0-inf) [1, 8]: 12900 ± 740 ng·h/mL
half-life [1, 8]: 5.7 ± 0.7 h
CL/F ([1]; in vivo, APP/PS1 mouse, 10 mg/kg single oral administration, read-out: CL/F (converted)): 14.3 mL/min/kg
Vd/F ([1]; in vivo, APP/PS1 mouse, 10 mg/kg single oral administration, read-out: Vd/F): 7.01 ± 0.934 L/kg
AUC(0-inf) [1, 9]: 3590 ± 71.7 ng·h/mL
half-life [1, 9]: 4.2 ± 0.2 h
AUC(0-inf) [1, 10]: 4180 ± 100 ng·h/mL
half-life [1, 10]: 4.2 ± 0.1 h
CL/F ([1]; in vivo, ICR mouse, 5 mg/kg single oral administration, read-out: CL/F (converted)): 18 mL/min/kg
Vd/F ([1]; in vivo, ICR mouse, 5 mg/kg single oral administration, read-out: Vd/F): 6.6 ± 0.38 L/kg
AUC(0-inf) [1, 11]: 7920 ± 457 ng·h/mL
half-life [1, 11]: 4.4 ± 0.2 h
CL/F ([1]; in vivo, ICR mouse, 10 mg/kg single oral administration, read-out: CL/F (converted)): 22 mL/min/kg
Vd/F ([1]; in vivo, ICR mouse, 10 mg/kg single oral administration, read-out: Vd/F): 8.41 ± 0.843 L/kg
AUC(0-inf) [1, 12]: 27100 ± 1090 ng·h/mL
half-life [1, 12]: 4.3 ± 0.4 h
CL/F ([1]; in vivo, ICR mouse, 30 mg/kg single oral administration, read-out: CL/F (converted)): 14.5 mL/min/kg
Vd/F ([1]; in vivo, ICR mouse, 30 mg/kg single oral administration, read-out: Vd/F): 5.45 ± 0.512 L/kg
tonic GABA current density [2]: significantly recovered
passive avoidance test (APP/PS1 transgenic mice; 1 mg/kg and 10 mg/kg, repeated administration for 2 weeks, vs APP/PS1 control group): statistically significant cognitive function improvement effect
Morris water maze test (APP/PS1 transgenic mice; 10 mg/kg for 27 to 37 days): statistically significant improvement
cognitive function (APP/PS1 transgenic mice; 4-week repeated dosing test): statistically significant cognitive function effect
chromosomal aberration assay [3]: negative
micronucleus assay [3]: negative
reverse mutation test [3]: negative
administered radioactivity present in the body (carcass) ([4]; 14C radiolabeled, oral 10 mg/kg): 44.1%
excreted in bile ([4]; BDC (bile duct-cannulated) rats, until 48 hours after oral administration): 71.5%
excreted in feces [4, 13]: 6.0%
excreted in urine [4, 13]: 6.8%
excretion to air through respiration ([4]; until 48 hours after administration): about 0.0%
excreted in feces [4, 14]: 48.5%
excreted in urine [4, 14]: 6.9%
half-life [5]: ~36 h
